# Source: US20190365745A1, “USE OF CHRONIC TREATMENT WITH ATR INHIBITORS TO SENSITIZE CANCER CELLS TO PARP INHIBITORS” (Cornell University, priority 2018, published 2019)
# Legend:
# Type in all cases: cell-based, Human
# [1] = tested on: HCT116 colon cancer cell line; test: DR-GFP assay of HR-mediated repair; settings: ATRi 8 days vs 2 days
# Method: (§1) FIGS. 14A-14B show WB analysis of hTERT RPE-1 (FIG. 14A) or HCT116 (colon cancer)(FIG. 14B) cells after 8 day chronic treatment with 5 μM ATRi or ATMi. […] FIGS. 14D-14E are bar graphs showing the analysis of HR-mediated repair using the DR-GFP system. Relative fold change of GFP positive hTERT RPE-1 (FIG. 14D) or HCT116 (FIG. 14E) cells over DMSO after ATRi treatment. (Error bars=SEM, N≥3, ****P-value<0.0001; one sample-t-test was used for the statistical analysis comparing 2 days versus 8 days of treatment).
# (§2) Human U2OS, HCT116, hTERT RPE-1, HEK293T, HeLa, U87, T98G, A2780, and human skin fibroblast cells (GM08398 and GM18366) were grown in DMEM media supplemented with 10% bovine calf serum, penicillin/streptomycin and non-essential amino acids. […]
# (§3) For the DR-GFP assay, cells (U2OS, HCT116, hTERT RPE-1, HEK293T, HeLa, U87, T98G, A2780, 293-T-REX-E2F6 cells and SV40 large T antigen transformed hTERT RPE-1) were transfected with the mCherry plasmid or DR-GFP reporter plasmid (pDR-GFP; addgene plasmid 26475) together with a plasmid coding for I-SceI (pCBASceI; addgene plasmid 26477) or DR-GFP reporter plasmid together with an empty plasmid pCAGGS. Two days after transfection, cells were trypsinized, resuspended in PBS and then analyzed by flow cytometry using FACSAria Fusion or Accuri C6 cytometer (BD). […]
# hTERT RPE-1 cells [2] = test: DR-GFP assay of HR-mediated repair; settings: ATRi 8 days vs 2 days
# Method: as §1, §2, §3
# U2OS cells = test: Immunoblotting of HR factor abundance
# Method: FIG. 5A is a schematic diagram of the SILAC/MS experiment. FIG. 5B is a quadrant diagram of the SILAC/MS experiment. Each dot represents a different identified protein. Proteins with abundance reduced two-fold or more after ATRi treatment are shown in the upper-left corner (white quadrant). FIG. 5C is a WB analysis of U2OS cells after 8 days of chronic treatment with 5 μM of ATRi or ATMi. FIG. 5D is a time course WB analysis of U2OS cells during chronic treatment with 5 μM ATRi. FIG. 5E is a WB analysis of U2OS cells at distinct cell cycle stages. Cells were treated with 1 mM hydroxyurea (HU) or 50 ng/ml nocodazole (Noc) for 24 hours. HU treated cells were released for 2.5 hours in HU-free media. FIG. 5F is a WB analysis of U2OS cells untreated or treated for 8 days with 5 μM ATRi.
# Human U2OS, HCT116, hTERT RPE-1, HEK293T, HeLa, U87, T98G, A2780, and human skin fibroblast cells (GM08398 and GM18366) were grown in DMEM media supplemented with 10% bovine calf serum, penicillin/streptomycin and non-essential amino acids. SV40 large T antigen transformed hTERT RPE-1 cells were generated by infecting hTERT RPE-1 cells with a SV40 large T antigen (SV40 LT)-expressing retrovirus and were selected using 500 μg/ml G418. The stable SV40 large T antigen transformed hTERT RPE-1 cell line was then maintained in culture media supplemented 500 μg/ml G418. For chronic treatment with ATR inhibitor (ATRi, VE-821) or ATM inhibitor (ATMi, KU-55933), cells were maintained in media with 5 μM ATR or ATM inhibitor respectively for 8 days before cells were subjected to western blot analysis, proteomic analysis, DR-GFP/EJ5-GFP assay or immunofluorescent staining. For CHK1 inhibitor (UCN-01), cells were treated for 5 days with 0.2 μM of inhibitor before the analysis. Primary human fibroblast cells from control subjects (GM08398) and patients with Seckel syndrome (GM18366, ATR-defective) were obtained from Coriell Institute for Medical Research, Camden, N.J.
# (§4) Cells were harvested and lysed in modified radioimmunoprecipitation assay (RIPA) buffer (50 mM Tris-HCl pH 7.5, 150 mM NaCl, 1% tergitol, 0.25% sodium deoxycholate, 5 mM EDTA) supplemented with Complete EDTA-free protease inhibitor cocktail (Roche), 1 mM PMSF, 5 mM sodium fluoride, 10 mM β-glycerol-phosphate and 0.4 mM sodium orthovanadate. Whole cell lysates were cleared with 5 minute centrifugation at 13,000 rpm at 4° C. and mixed with 3×SDS sample buffer (bromophenol blue, stacking gel buffer, 50% glycerol, 3% SDS and 60 mM DTT). After being resolved on SDS-PAGE gels, proteins were then transferred onto polyvinylidene difluoride (PVDF) membranes and detected with designated antibodies.
# hTERT RPE-1 cells [3] = test: Immunoblotting of HR factor abundance; settings: 5 μM ATRi, 8 days
# Method: as §1, §2
# as §4, with “Whole cell lysates were cleared with 5 minute centrifugation at 13,000 rpm at 4° C. and mixed with 3×SDS sample buffer (bromophenol blue, stacking gel buffer, 50% glycerol, 3% SDS and 60 mM DTT).” left out
compound,measurement,setting,value
"CS(=O)(=O)c1ccc(-c2cnc(N)c(C(=O)Nc3ccccc3)n2)cc1 [ATRi, VE-821]","HR-mediated repair efficiency (DR-GFP), chronic vs short-term treatment",[1],significantly more severe than that of short-term treatment
same,"HR-mediated repair efficiency (DR-GFP), chronic vs short-term (2 day) treatment",hTERT RPE-1 cells [2],did not result in a striking drop in HR-mediated repair efficiency
same,Changes in abundance of NHEJ factors 53BP1 and PTIP (WB),"U2OS cells; 5 μM ATRi, 8 days",minimal
same,"Changes in protein abundance, time course (WB)","U2OS cells; 5 μM ATRi, after 2 and 4 days",minor changes in protein abundance
same,"Changes in protein abundance, time course (WB)","U2OS cells; 5 μM ATRi, after 6 and 8 days",changes become more striking
same,Abundance of several proteins involved in HR-mediated repair (WB),U2OS cells; chronic ATR inhibition,severely reduced
same,Protein levels of RAD51 and TOPBP1 (WB),"U2OS cells; chronic ATR inhibition, 5 μM, 8 days",reduced
same,Abundance of BRCA1 (WB),hTERT RPE-1 cells [3],did not result in major changes in the abundance of BRCA1
